{
  "source": "BindingDB's records for doi:10.1016/s0960-894x(98)00722-7",
  "about": "(Institut De Chimie Organique De L'Universit&#233, 1999)",
  "test": "Inhibitory activity against rice Alpha-galactosidase",
  "data": [
    {"smiles": "OCC1=NO[C@H]2[C@H](O)C(O)O[C@@H]12", "note": "(stereo partly drawn) [(3aS,6S,6aS)-3-Hydroxymethyl-3a,5,6,6a-tetrahydro-furo[2,3-d]isoxazole-5,6-diol]", "values": [
      {"measurement": "IC50", "result": 805, "unit": "µM"}
    ]}
  ]
}
